Values quoted from earlier work, collected in patent US11179338B1, “Powder for oral suspension containing tadalafil” (AUSON PHARMACEUTICALS INC., priority 2021, dated 2021).

CN1CC(=O)N2[C@H](c3ccc4c(c3)OCO4)c3[nH]c4ccccc4c3C[C@@H]2C1=O [Tadalafil, pyrazino [1′,2′:1,6]pyrido[3,4-b]indole-1,4-dione, 6-(1,3-benzodioxol-5-yl) 2,3,6,7,12,12a-hexahydro-2-methyl-, (6R,12aR)-]
solubility in water: insoluble
